The SangsterLogP compilation
Each block holds one compound with its values, some of them ahead of it.

Experiments:
[1] = method code SF-AS, from DOI: 10.1016/j.bmc.2004.10.037, PMID: 15653345
[2] = method code SF-AS, from DOI: 10.1002/ardp.19853180604, PMID: 4026543; settings: pH 7.4
[3] = not given; remark: listed apart in the source
[4] = not given; remark: listed apart in the source
[5] = method code SF-RC, from DOI: 10.1016/0361-9230(85)90153-4, PMID: 2413968
[6] = not given; remark: listed apart in the source
[7] = not given; remark: listed apart in the source
[8] = not given; remark: listed apart in the source
[9] = method code SF-RC, from DOI: 10.1016/j.nucmedbio.2006.06.006, PMID: 16934700; settings: pH 7.4
[10] = not given; remark: listed apart in the source
[11] = method code SF-AS, from DOI: 10.1002/ps.2780160411
[12] = not given; remark: listed apart in the source
[13] = not given; remark: listed apart in the source
[14] = method code SF-HPLC, from DOI: 10.1248/cpb.47.1081, PMID: 10478463; settings: pH 6.5
[15] = method code SF-AS, from DOI: 10.1021/jm00395a009, PMID: 3681892; settings: pH 7.4
[16] = not given; remark: listed apart in the source
[17] = method code SF, from PMID: 8999431; settings: pH 7.4
[18] = not given; remark: listed apart in the source
[19] = method code SF-AS, from DOI: 10.1163/156856796x00098; settings: pH 7.4
[20] = not given; remark: listed apart in the source
[21] = not given; remark: listed apart in the source
[22] = method code SF-HPLC, from DOI: 10.1016/s0021-9673(99)01336-9, PMID: 10757301
[23] = method code SF, from DOI: 10.1016/0168-3659(92)90078-6; settings: pH 7.0

logP [1]: 1.57
SMILES: CCOC(=O)N1CCN(Cc2ccc(O)c3ncccc23)CC1

logD [2]: -1.06
SMILES: Cc1nc2ccccc2c(=O)n1N=C1SCC(=O)N1c1ccccc1

logP: 2.86
SMILES: COc1ccc(-c2cc(C#N)c(Cl)nc2C)cc1OC

logP [3]: 3.15
SMILES: CCCC(=O)Oc1cc(C=C(C#N)C(=O)N(CC)CC)cc([N+](=O)[O-])c1OC(=O)CCC

logP [4]: 1.12
SMILES: Cc1cn(C2CC(N=[N+]=[N-])C(COC(=O)C(=O)NC(CC(C)C)C(=O)O)O2)c(=O)[nH]c1=O (configuration not stated)

logP [5]: -0.56
SMILES: CSCC[C@H](NC(=O)[C@H](CC(C)C)NC(=O)CNC(=O)[C@H](Cc1ccccc1)NC(=O)[C@H](Cc1ccccc1)NC(=O)[C@H](CCC(N)=O)NC(=O)[C@H](CCC(N)=O)NC(=O)[C@@H]1CCCN1C(=O)[C@H](CCCCN)NC(=O)[C@@H]1CCCN1C(=O)[C@@H](N)CCCN=C(N)N)C(N)=O

logP [6]: 4
SMILES: Clc1cccc(Cl)c1C=NN=c1ccn(CCc2c(Cl)cccc2Cl)cc1

logP [6]: 3.9
SMILES: Clc1cccc(Cl)c1C=NN=c1ccn(CCCc2ccccc2)cc1

logP [7]: 3.21
SMILES: CCCCNc1cc(C(=O)O)cc(S(N)(=O)=O)c1Oc1ccccc1

logP [8]: 4.4
SMILES: Cc1ccc(Cl)c(NS(=O)(=O)c2nc(C)n(-c3ccccc3)n2)c1Cl

logD [9]: 3.56
SMILES: FCCCNc1ccc(-c2cc3ccccc3s2)cc1

SMILES: Cc1cc(C)cc(OP(=O)(Oc2cc(C)cc(C)c2)Oc2cc(C)cc(C)c2)c1
logP [10]: 5.26

logP [5]: -1.42
SMILES: NC(=O)[C@@H]1CCCN1C(=O)[C@H](Cc1cnc[nH]1)NC(=O)[C@@H]1CCC(=O)N1

logP [11]: 5.73
SMILES: CC(C)CCCCCOC(=O)COc1ccc(Cl)cc1Cl

logP [12]: 0.59
SMILES: CC1(C)S[C@@H]2[C@H](NC(=O)[C@@H](c3ccccc3)S(=O)(=O)O)C(=O)N2[C@H]1C(=O)O

logD [9]: 3.07
SMILES: COc1ccc(-c2cc3ccccc3s2)cc1

logP [13]: 3.58
SMILES: CC1(C)C=Cc2c(ccc3c2O[C@H]2c4ccc(O)cc4OC[C@@H]32)O1 (relative stereo)

logP [8]: 3.7
SMILES: CCc1nc(S(=O)(=O)Nc2c(F)cccc2F)nn1-c1ccccc1

logP [3]: 1.23
SMILES: CCN(CC)C(=O)C(C#N)=Cc1cc(OC(C)=O)c(OC(C)=O)c([N+](=O)[O-])c1

logD [14]: 0.46
SMILES: CON=C(C(=O)NC1C(=O)N2C(C(=O)OC(C)OC(C)=O)=CCSC12)c1csc(N)n1 (configuration not stated)

logP [5]: -1.35
SMILES: CCNC(=O)[C@@H]1CCCN1C(=O)[C@H](CCCN=C(N)N)NC(=O)[C@H](CC(C)C)NC(=O)[C@@H](COC(C)(C)C)NC(=O)[C@H](Cc1ccc(O)cc1)NC(=O)[C@H](CO)NC(=O)[C@H](Cc1c[nH]c2ccccc12)NC(=O)[C@H](Cc1cnc[nH]1)NC(=O)[C@@H]1CCC(=O)N1

logD [15]: 1.38
SMILES: O=c1c(F)cn(C2CCCO2)c(=O)n1Cc1ccccc1 (configuration not stated)

logD [15]: 1.81
SMILES: COCC1OC(n2ccc(=O)n(Cc3ccccc3)c2=O)C(OC)C1OC (configuration not stated)

logP [16]: 4.23
SMILES: CC(C)N(CCC(CCC1CCCCC1)(C(N)=O)c1ccccc1Cl)C(C)C (configuration not stated)

logP [13]: 2.58
SMILES: COc1ccc2c(c1)OC[C@]1(O)c3cc4c(cc3O[C@H]21)OCO4

logD [14]: 2.52
SMILES: CON=C(C(=O)NC1C(=O)N2C(C(=O)OC(C)OC(=O)OC3CCCCC3)=CCSC12)c1csc(N)n1 (configuration not stated)

logP [12]: 2.58
SMILES: Cc1onc(-c2c(F)cccc2Cl)c1C(=O)N[C@@H]1C(=O)N2[C@@H]1SC(C)(C)[C@@H]2C(=O)O

logD [17]: 3.15
SMILES: CCn1cc(C(=O)NC(CC(C)C)C(=O)OC)c(=O)c2ccc(C)nc21 (configuration not stated)

SMILES: OC(Cn1cncn1)(c1ccc(F)cc1)c1ccccc1F (configuration not stated)
logP [18]: 2.3

logP [4]: 0.16
SMILES: Cc1cn(C2CC(N=[N+]=[N-])C(COC(=O)C(=O)N3CCCC3C(=O)O)O2)c(=O)[nH]c1=O (configuration not stated)

logD [19]: 2.29
SMILES: CCOP(=O)(CC(C)(C)[N+]([O-])=Cc1ccc(Cl)cc1)OCC

logP [20]: 3.44
SMILES: CCc1c(Sc2ccccc2)n(COCc2ccccc2)c(S)nc1=O

logP [13]: 2.44
SMILES: COc1ccc([C@@H]2COc3cc(O)ccc3C2)c(O)c1

SMILES: CCCCOP(=O)(OCCCC)Oc1ccccc1
logP [10]: 3.23

logD [2]: -1.26
SMILES: Cc1nc2ccccc2c(=O)n1N=C1SCC(=O)N1c1ccc(Br)cc1

logP [1]: 1.79
SMILES: C#CCN1CCN(Cc2ccc(O)c3ncccc23)CC1

logP [7]: 3.75
SMILES: COC(=O)C1=C(C)NC(C)=C(C(=O)OC(C)C)[C@H]1c1cccc2nonc12

logD [14]: 1.37
SMILES: CON=C(C(=O)NC1C(=O)N2C(C(=O)OC(C)OC(=O)OC(C)C)=CCSC12)c1csc(N)n1 (configuration not stated)

logD [17]: 2.47
SMILES: CCn1cc(C(=O)NC(C)C(=O)OC)c(=O)c2ccc(C)nc21 (configuration not stated)

logD [15]: -0.36
SMILES: CC(=O)OC[C@H]1O[C@@H](n2ccc(=O)[nH]c2=O)[C@H](OC(C)=O)[C@@H]1OC(C)=O

logP: 2.72
SMILES: Cc1nc(NCCCO)c(C#N)cc1-c1ccccc1

logD [17]: 2.07
SMILES: CCOC(=O)CNC(=O)c1cn(CC)c2nc(C)ccc2c1=O

logD [19]: 1
SMILES: CCOP(=O)(CC(C)(C)[N+]([O-])=Cc1ccccc1)OCC

logP [6]: 2.8
SMILES: ON=C1CCN(CCCc2ccccc2)CC1

logP [7]: 1.6
SMILES: C[C@]12C=CC(=O)C=C1CC[C@@H]1[C@@H]2C(=O)C[C@@]2(C)[C@H]1CC[C@]2(O)C(=O)CO

logP [12]: 3.14
SMILES: CC1(C)S[C@@H]2[C@H](NC(=O)C(C(=O)Oc3ccccc3)c3ccccc3)C(=O)N2[C@H]1C(=O)O (some centres not stated)

logP [21]: 3.71
SMILES: CN(CCF)c1ccc2cc(CC=C(C#N)C#N)ccc2c1

logP [22]: 0.08
SMILES: CC(=O)OCC1=C(C(=O)O)N2C(=O)C(NC(=O)Cc3cccs3)C2SC1 (configuration not stated)

logD [9]: 2.88
SMILES: FCCCOc1ccc(-c2cc3ccccc3s2)cc1

SMILES: CS(=O)(=O)NC(=O)c1cc(Oc2ccc(C(F)(F)F)cc2Cl)ccc1[N+](=O)[O-]
logP [11]: 2.9

logP [1]: 0.71
SMILES: C#CCNC(Cc1ccc(O)c2ncccc12)C(=O)OCC (configuration not stated)

logP [21]: 2.32
SMILES: CNc1ccc(-c2ccc3cc(OCC(O)CF)ccc3n2)cc1 (configuration not stated)

logP [20]: 0.74
SMILES: CCOCn1c(Cc2ccccc2)c(CC)c(=O)[nH]c1=O

logP [11]: 3.2
SMILES: COc1c(Br)cccc1C(=CC(=O)C(C)(C)C)n1cncn1

logD [19]: -0.74
SMILES: CCOP(=O)(CC(C)(C)[N+]([O-])=Cc1cc[n+]([O-])cc1)OCC

SMILES: CCCCC(CC)COP(=O)(Oc1ccccc1)Oc1ccccc1 (configuration not stated)
logP [10]: 5

logP [16]: 3.66
SMILES: CC(C)N(CCC(C(N)=O)c1ccc(-c2ccccc2)cc1)C(C)C (configuration not stated)

logP [16]: 2.83
SMILES: CC(C)N(CCC(C(N)=O)c1ccccc1Cl)C(C)C (configuration not stated)

logD [23]: 1.02
SMILES: Cc1ccccc1C(=O)OCC1CCC(n2cnc3c(O)ncnc32)O1 (configuration not stated)

logP [22]: -0.13
SMILES: CO/N=C(\C(=O)N[C@@H]1C(=O)N2C(C(=O)O)=C(COC(C)=O)CS[C@H]12)c1csc(N)n1

logP [3]: 3.44
SMILES: CCN(CC)C(=O)C(C#N)=Cc1cc(OC(=O)c2ccccc2)c(OC(=O)c2ccccc2)c([N+](=O)[O-])c1

logD [2]: -1.6
SMILES: Cc1nc2ccccc2c(=O)n1N=C1SCC(=O)N1c1ccc(Cl)cc1

logP [20]: 3.46
SMILES: CCOCn1c(Cc2cc(C)cc(C)c2)c(C(C)C)c(=O)[nH]c1=O

logP [22]: -0.15
SMILES: CC(=O)OCC1=C(C(=O)O)N2C(=O)[C@@H](NC(=O)CSc3ccncc3)[C@H]2SC1

logP [21]: 2.4
SMILES: Nc1ccc(-c2ccc3cc(OCCF)ccc3n2)cc1

logD [23]: 0.11
SMILES: CCCC(=O)OC[C@@H]1CC[C@H](n2cnc3c(=O)[nH]cnc32)O1

logP [18]: 3.2
SMILES: FC(F)C(F)(F)OCC1COC(Cn2cncn2)(c2ccc(Cl)cc2Cl)O1 (configuration not stated)

logP [8]: 3.2
SMILES: Cc1nc(S(=O)(=O)Nc2c(F)cccc2F)nn1-c1ccccc1

SMILES: CCCC1COC(Cn2cncn2)(c2ccc(Cl)cc2Cl)O1 (configuration not stated)
logP [18]: 3.4

logP [4]: 0.68
SMILES: Cc1cn(C2CC(N=[N+]=[N-])C(COC(=O)C(=O)NC(C(=O)O)C(C)C)O2)c(=O)[nH]c1=O (configuration not stated)

logP: 2.72
SMILES: Cc1nc(NCC(C)O)c(C#N)cc1-c1ccccc1 (configuration not stated)

logD [23]: 0.65
SMILES: CCCCC(=O)OC[C@@H]1CC[C@H](n2cnc3c(=O)[nH]cnc32)O1
